BindingDB's records for patent US9675697 (University of Michigan, 2017)

Molecular target: Bromodomain-containing protein 4 (Homo sapiens, UniProt O60885)
Experiment: FP Competitive Binding Assay (No.350)
Settings: 25 °C
Experimental: Fluorescence Polarization (FP) competitive binding studies (see above) were carried out using the FAM labeled fluorescent probe Cpd. No. 350 to determine binding affinities of representative compounds to both BD1 and BD2 of BRD2, BRD3, and BRD4 proteins. Equilibrium dissociation constants (Id) values of Cpd. […] Final Cpd. […] Kd values of Cpd.

SMILES | Ki
COc1cc2c(cc1-c1c(C)noc1C)[nH]c1nc(C)nc(-c3ccc(NC(=O)N4CCN(C)CC4)c4ccccc34)c12 [US9675697, Cpd. No. 316] | 2.9 nM
COc1cc2c(cc1-c1c(C)noc1C)[nH]c1nc(C)nc(-c3ccc(NC(=O)N4CCN(C5COC5)CC4)c4ccccc34)c12 [US9675697, Cpd. No. 317] | 7.1 nM
